Source: ChEMBL document CHEMBL1150289, “Petiolins A-C, phloroglucinol derivatives from Hypericum pseudopetiolatum var. kiusianum” (Bioorg Med Chem, 2008)
Values after ≈ are worked out from the molar mass of the structure shown.

Experiments:
[1] = system: L1210; assay: Cytotoxicity against mouse L1210 cells; format: functional, cell-based
[2] = system: Trichophyton mentagrophytes; assay: Antifungal activity against Trichophyton mentagrophytes; format: functional
[3] = system: KB; assay: Cytotoxicity against human KB cells; format: functional, cell-based

## CC(C)=CCC[C@@](C)(O)[C@@H]1CC2=C(O1)/C(=C(/O)C(C)C)C(=O)C(C)(C)C2=O [PETIOLIN C]
[1]
  IC50: 3.3 µg/mL (≈ 8.77 µM)
[2]
  MIC: 33.3 µg/mL (≈ 88.4 µM)
[3]
  IC50: 4.9 µg/mL (≈ 13 µM)

## CC(C)=CCCC1(C)C=CC2=C(O1)C(C)(C)C(=O)C(C(=O)C(C)C)=C2O (configuration not stated) [PETIOLIN A]
[1]
  IC50: 2.5 µg/mL (≈ 6.97 µM)
[3]
  IC50: 4.8 µg/mL (≈ 13.4 µM)

## CCC(C)C(=O)C1=C(O)C2=C(OC(C)(CCC=C(C)C)C=C2)C(C)(C)C1=O (configuration not stated) [PETIOLIN B]
[1]
  IC50: > 10 µg/mL
[3]
  IC50: 9.6 µg/mL (≈ 25.8 µM)
